From patent US12545639B2, “3-substituted phenylamidine compounds, preparation and use thereof” (PI INDUSTRIES LTD., priority 2019, dated 2026)

What was measured:
Pyricularia oryzae = assay: microbe, parasite or virus in culture; assay type: cell-based; conditions: 168 h, read-out: control compared to the untreated check (radial growth)
Alternaria solani = Alternaria solani (early blight of tomato/potato) in vitro test, radial growth on potato dextrose agar; assay type: cell-based; conditions: 168 h, 300 ppm in potato dextrose agar, 25° C., 60% relative humidity, seven days, read-out: control compared to the untreated check (radial growth)
Colletotrichum capsici = Colletotrichum capsici (anthracnose) in vitro test, radial growth on potato dextrose agar; assay type: cell-based; conditions: Colletotrichum truncatum, 168 h; 300 ppm in potato dextrose agar; 25° C., 60% relative humidity, seven days; read-out: control compared to the untreated check (radial growth)
[1] = system: Septoria lycopersici/Corynespora cassicola (CORYCA); assay: Septoria lycopersici/Corynespora cassicola (CORYCA) (leaf spot of tomato) in vitro test, radial growth on potato dextrose agar; assay type: cell-based; conditions: 168 h, 300 ppm in potato dextrose agar, 25° C., 70% relative humidity, seven days, read-out: control compared to the untreated check (radial growth)
Fusarium culmorum = Fusarium culmorum (foot rot of cereals) in vitro test, radial growth on potato dextrose agar; assay type: cell-based; conditions: 168 h, 300 ppm in potato dextrose agar, 25° C., 60% relative humidity, seven days, read-out: control compared to the untreated check (radial growth)
Procedure: Compounds were dissolved in 0.3% dimethyl sulfoxide and then added to potato dextrose agar medium just prior to dispensing it into petri dishes. 5 mL medium with the compound in the desired concentration was dispensed into 60 mm sterile petri-plates. After solidification each plate was seeded with a 5 mm size mycelial disc taken from the periphery of an actively growing virulent culture plate. Plates were incubated in growth chambers at 25° C. temperature and 60% relative humidity for seven days and then the radial growth was measured and compared to that of the untreated control.

Rhizoctonia solani = Rhizoctonia solani (rice sheath blight/potato black scurf) in vitro test, radial growth on potato dextrose agar; assay type: cell-based; conditions: 168 h, 300 ppm in potato dextrose agar, 25° C., 60% relative humidity, seven days, read-out: control compared to the untreated check (radial growth)
Botrytis cinerea = Botrytis cinerea (gray mold) in vitro test, radial growth on potato dextrose agar; assay type: cell-based; conditions: 168 h, 300 ppm in potato dextrose agar, 22° C., 90% relative humidity, seven days, read-out: control compared to the untreated check (radial growth)
Phakopsora pachyrhizi = Phakopsora pachyrhizi test in soybean, preventive, in vivo on plants; conditions: in Glycine max, read-out: Efficacy (% control), disease severity compared to the untreated check

CCN(C)C=Nc1cc(C)cc(Nc2ncc(Cl)cc2C)c1Cl [Compound 112, N′-(2-chloro-3-((5-chloro-3-methylpyridin-2-yl)amino)-5-methylphenyl)-N-ethyl-N-methylformimidamide]
≥ 70%: inhibition of growth at 300 ppm (Pyricularia oryzae) | inhibition of growth at 300 ppm (Alternaria solani) | inhibition of growth at 300 ppm (Colletotrichum capsici) | inhibition of growth at 300 ppm [1] | inhibition of growth at 300 ppm (Fusarium culmorum)

CCN(C)C=Nc1cc(C)cc(Nc2ccc(SC(F)(F)F)cc2)c1Cl [Compound 26, N′-(2-chloro-5-methyl-3-((4-((trifluoromethyl)thio)phenyl)amino)phenyl)-N-ethyl-N-methylformimidamide]
≥ 70%: inhibition of growth at 300 ppm (Rhizoctonia solani) | inhibition of growth at 300 ppm (Botrytis cinerea) | inhibition of growth at 300 ppm (Alternaria solani) | inhibition of growth at 300 ppm (Colletotrichum capsici) | inhibition of growth at 300 ppm (Fusarium culmorum) | pest or weed control at 500 ppm (Phakopsora pachyrhizi)

CCN(C)C=Nc1cc(OC)cc(Cc2cccc(Cl)c2)c1C [Compound 264, N′-(3-(3-chlorobenzyl)-5-methoxy-2-methylphenyl)-N-ethyl-N-methylformimidamide]
≥ 70%: inhibition of growth at 300 ppm (Pyricularia oryzae) | inhibition of growth at 300 ppm (Rhizoctonia solani) | inhibition of growth at 300 ppm (Botrytis cinerea) | inhibition of growth at 300 ppm (Alternaria solani) | inhibition of growth at 300 ppm [1] | inhibition of growth at 300 ppm (Fusarium culmorum) | pest or weed control at 500 ppm (Phakopsora pachyrhizi)

CCN(C)C=Nc1cc(OC)cc(Cc2ccccc2Br)c1C [Compound 294, N′-(3-(2-bromobenzyl)-5-methoxy-2-methylphenyl)-N-ethyl-N-methylformimidamide]
≥ 70%: inhibition of growth at 300 ppm (Pyricularia oryzae) | inhibition of growth at 300 ppm (Rhizoctonia solani) | inhibition of growth at 300 ppm (Botrytis cinerea) | inhibition of growth at 300 ppm (Alternaria solani) | inhibition of growth at 300 ppm [1] | inhibition of growth at 300 ppm (Fusarium culmorum) | pest or weed control at 500 ppm (Phakopsora pachyrhizi)

CCN(C)C=Nc1cc(Cl)cc(Cc2ccc(C)cc2)c1C [Compound 105, N′-(5-chloro-2-methyl-3-(4-methylbenzyl)phenyl)-N-ethyl-N-methylformimidamide]
≥ 70%: inhibition of growth at 300 ppm (Pyricularia oryzae) | inhibition of growth at 300 ppm (Rhizoctonia solani) | inhibition of growth at 300 ppm (Botrytis cinerea) | inhibition of growth at 300 ppm (Alternaria solani) | inhibition of growth at 300 ppm (Colletotrichum capsici) | inhibition of growth at 300 ppm (Fusarium culmorum) | pest or weed control at 500 ppm (Phakopsora pachyrhizi)

CCN(C)C=Nc1cc(Cl)cc(Cc2ccccc2C)c1C [Compound 88, N′-(5-chloro-2-methyl-3-(2-methylbenzyl)phenyl)-N-ethyl-N-methylformimidamide]
≥ 70%: inhibition of growth at 300 ppm (Pyricularia oryzae) | inhibition of growth at 300 ppm (Rhizoctonia solani) | inhibition of growth at 300 ppm (Botrytis cinerea) | inhibition of growth at 300 ppm (Alternaria solani) | inhibition of growth at 300 ppm (Colletotrichum capsici) | inhibition of growth at 300 ppm (Fusarium culmorum) | pest or weed control at 500 ppm (Phakopsora pachyrhizi)

CCN(C)C=Nc1cc(C)cc(Nc2ccc(C)cc2)c1Cl [Compound 1, N′-(2-chloro-5-methyl-3-(p-tolylamino)phenyl)-N-ethyl-N-methylformimidamide]
≥ 70%: inhibition of growth at 300 ppm (Pyricularia oryzae) | inhibition of growth at 300 ppm (Rhizoctonia solani) | inhibition of growth at 300 ppm (Alternaria solani) | inhibition of growth at 300 ppm (Colletotrichum capsici) | inhibition of growth at 300 ppm (Fusarium culmorum)

CCN(C)C=Nc1cc(OC)cc(Cc2ccccc2OC(F)(F)F)c1C [Compound 299, N-ethyl-N′-(5-methoxy-2-methyl-3-(2-(trifluoromethoxy)benzyl)phenyl)-N-methylformimidamide]
≥ 70%: inhibition of growth at 300 ppm (Pyricularia oryzae) | inhibition of growth at 300 ppm (Rhizoctonia solani) | inhibition of growth at 300 ppm (Botrytis cinerea) | inhibition of growth at 300 ppm (Alternaria solani) | inhibition of growth at 300 ppm [1] | inhibition of growth at 300 ppm (Fusarium culmorum) | pest or weed control at 500 ppm (Phakopsora pachyrhizi)

CCN(C)C=Nc1cc(OC)cc(Cc2ccc(F)c(F)c2)c1C [Compound 286, N′-(3-(3,4-difluorobenzyl)-5-methoxy-2-methylphenyl)-N-ethyl-N-methylformimidamide]
≥ 70%: inhibition of growth at 300 ppm (Pyricularia oryzae) | inhibition of growth at 300 ppm (Rhizoctonia solani) | inhibition of growth at 300 ppm (Botrytis cinerea) | inhibition of growth at 300 ppm (Alternaria solani) | inhibition of growth at 300 ppm [1] | inhibition of growth at 300 ppm (Fusarium culmorum) | pest or weed control at 500 ppm (Phakopsora pachyrhizi)

CCN(C)C=Nc1cc(C)cc(Cc2ccc(C#N)cc2)c1Cl [Compound 46, N′-(2-chloro-3-(4-cyanobenzyl)-5-methylphenyl)-N-ethyl-N-methylformimidamide]
≥ 70%: inhibition of growth at 300 ppm (Pyricularia oryzae) | inhibition of growth at 300 ppm (Rhizoctonia solani) | inhibition of growth at 300 ppm (Botrytis cinerea) | inhibition of growth at 300 ppm (Alternaria solani) | inhibition of growth at 300 ppm (Colletotrichum capsici) | inhibition of growth at 300 ppm (Fusarium culmorum)

CCN(C)C=Nc1cc(OC)cc(Cc2ccc(F)cc2)c1C [Compound 261, N-ethyl-N′-(3-(4-fluorobenzyl)-5-methoxy-2-methylphenyl)-N-methylformimidamide]
≥ 70%: inhibition of growth at 300 ppm (Pyricularia oryzae) | inhibition of growth at 300 ppm (Rhizoctonia solani) | inhibition of growth at 300 ppm (Botrytis cinerea) | inhibition of growth at 300 ppm (Alternaria solani) | inhibition of growth at 300 ppm [1] | inhibition of growth at 300 ppm (Fusarium culmorum) | pest or weed control at 500 ppm (Phakopsora pachyrhizi)

CCN(C)C=Nc1cc(OC)cc(Cc2ccccc2C)c1C [Compound 262, N-ethyl-N′-(5-methoxy-2-methyl-3-(2-methylbenzyl)phenyl)-N-methylformimidamide]
≥ 70%: inhibition of growth at 300 ppm (Pyricularia oryzae) | inhibition of growth at 300 ppm (Rhizoctonia solani) | inhibition of growth at 300 ppm (Botrytis cinerea) | inhibition of growth at 300 ppm (Alternaria solani) | inhibition of growth at 300 ppm [1] | inhibition of growth at 300 ppm (Fusarium culmorum) | pest or weed control at 500 ppm (Phakopsora pachyrhizi)

CCN(C)C=Nc1cc(Cl)cc(Cc2ccc(C#N)cc2)c1C [Compound 246, N′-(5-chloro-3-(4-cyanobenzyl)-2-methylphenyl)-N-ethyl-N-methylformimidamide]
≥ 70%: inhibition of growth at 300 ppm (Pyricularia oryzae) | inhibition of growth at 300 ppm (Rhizoctonia solani) | inhibition of growth at 300 ppm (Botrytis cinerea) | inhibition of growth at 300 ppm (Alternaria solani) | inhibition of growth at 300 ppm (Colletotrichum capsici) | inhibition of growth at 300 ppm (Fusarium culmorum)

CCN(C)C=Nc1cc(OC)cc(Cc2cc(C)cc(F)c2)c1C [Compound 292, N-ethyl-N′-(3-(3-fluoro-5-methylbenzyl)-5-methoxy-2-methylphenyl)-N-methylformimidamide]
≥ 70%: inhibition of growth at 300 ppm (Pyricularia oryzae) | inhibition of growth at 300 ppm (Rhizoctonia solani) | inhibition of growth at 300 ppm (Botrytis cinerea) | inhibition of growth at 300 ppm (Alternaria solani) | inhibition of growth at 300 ppm [1] | inhibition of growth at 300 ppm (Fusarium culmorum)

CCN(C)C=Nc1cc(OC)cc(Cc2ccccc2C(F)(F)F)c1C [Compound 307, N-ethyl-N′-(5-methoxy-2-methyl-3-(2-(trifluoromethyl)benzyl)phenyl)-N-methylformimidamide]
≥ 70%: inhibition of growth at 300 ppm (Pyricularia oryzae) | inhibition of growth at 300 ppm (Rhizoctonia solani) | inhibition of growth at 300 ppm (Botrytis cinerea) | inhibition of growth at 300 ppm (Alternaria solani) | inhibition of growth at 300 ppm [1] | inhibition of growth at 300 ppm (Fusarium culmorum)

CCN(C)C=Nc1cc(C)cc(Cc2cccc(F)c2)c1SC [Compound 190, N-ethyl-N′-(3-(3-fluorobenzyl)-5-methyl-2-(methylthio)phenyl)-N-methylformimidamide]
≥ 70%: inhibition of growth at 300 ppm (Pyricularia oryzae) | inhibition of growth at 300 ppm (Rhizoctonia solani) | inhibition of growth at 300 ppm (Alternaria solani) | inhibition of growth at 300 ppm (Colletotrichum capsici) | inhibition of growth at 300 ppm (Fusarium culmorum) | pest or weed control at 500 ppm (Phakopsora pachyrhizi)

CCN(C)C=Nc1cc(F)cc(Cc2ccc(C(F)(F)F)cc2)c1C [Compound 188, N-ethyl-N′-(5-fluoro-2-methyl-3-(4-(trifluoromethyl)benzyl)phenyl)-N-methylformimidamide]
≥ 70%: inhibition of growth at 300 ppm (Pyricularia oryzae) | inhibition of growth at 300 ppm (Rhizoctonia solani) | inhibition of growth at 300 ppm (Botrytis cinerea) | inhibition of growth at 300 ppm (Alternaria solani) | inhibition of growth at 300 ppm [1] | inhibition of growth at 300 ppm (Fusarium culmorum) | pest or weed control at 500 ppm (Phakopsora pachyrhizi)

CCN(C)C=Nc1cc(OC)cc(Cc2ccc(C(F)(F)F)cc2)c1C [Compound 295, N-ethyl-N′-(5-methoxy-2-methyl-3-(4-(trifluoromethyl)benzyl)phenyl)-N-methylformimidamide]
≥ 70%: inhibition of growth at 300 ppm (Pyricularia oryzae) | inhibition of growth at 300 ppm (Rhizoctonia solani) | inhibition of growth at 300 ppm (Botrytis cinerea) | inhibition of growth at 300 ppm (Alternaria solani) | inhibition of growth at 300 ppm [1] | inhibition of growth at 300 ppm (Fusarium culmorum) | pest or weed control at 500 ppm (Phakopsora pachyrhizi)

CCN(C)C=Nc1cc(OC)cc(Cc2cc(F)ccc2Cl)c1C [Compound 293, N′-(3-(2-chloro-5-fluorobenzyl)-5-methoxy-2-methylphenyl)-N-ethyl-N-methylformimidamide]
≥ 70%: inhibition of growth at 300 ppm (Pyricularia oryzae) | inhibition of growth at 300 ppm (Rhizoctonia solani) | inhibition of growth at 300 ppm (Botrytis cinerea) | inhibition of growth at 300 ppm (Alternaria solani) | inhibition of growth at 300 ppm [1] | inhibition of growth at 300 ppm (Fusarium culmorum)

CCN(C)C=Nc1cc(Cl)cc(Nc2cccc(Br)c2)c1C [Compound 164, N′-(3-((3-bromophenyl)amino)-5-chloro-2-methylphenyl)-N-ethyl-N-methylformimidamide]
≥ 70%: inhibition of growth at 300 ppm (Pyricularia oryzae) | inhibition of growth at 300 ppm (Rhizoctonia solani) | inhibition of growth at 300 ppm (Botrytis cinerea) | inhibition of growth at 300 ppm (Alternaria solani) | inhibition of growth at 300 ppm [1] | inhibition of growth at 300 ppm (Fusarium culmorum)
